In patent US20110110886A1, “SMALL MOLECULE INHIBITORS OF AUTOTAXIN AND METHODS OF USE” (Yale University, priority 2008, published 2011):
“Also recorded” adds a separate entry of the source. Like-named read-outs stand apart in the source and are kept apart here.

What was measured:
[1] = molecular target: T1, ATX (recombinant full-length human ATX), PDE activity (Homo sapiens, UniProt Q13822); assay: Steady-state ATX phosphodiesterase (PDE) activity with pNP-TMP, absorbance 405 nm; format: biochemical; conditions: substrate pNP-TMP; for Ki: 25° C.
T1 construct: consistent with a mature, glycosylated form of the enzyme; TEV cleavage site (C); 9-His (C); 6-His (C); made in house; host or cells: High Five insect cells (baculovirus, p-DEST-8)
Description: Protein expression and purification: The full length human NPP2 gene (NCBI accession #BC034961) followed by a C-terminal TEV cleavage site and a 9-His and 6-His purification tag was cloned and transferred into a p-DEST-8 baculovirus shuttle vector (Invitrogen), and bacmid DNA was generated by standard methods. The DNA sequence and correct transposition of the genes was verified by PCR, and recombinant full-length human ATX was expressed in High Five insect cells using standard methods. Three days post infection, the supernatant was adjusted to a final concentration of 50 mM Tris pH 8.0, 5 mM CaCl2, and 1 mM NiSO4 and stirred for 10 min. at room temperature. The resulting precipitant was removed by centrifugation (4,420×g for 30 minutes) and filtration ([…]), and the supernatant was concentrated using a Pall concentration system to approximately 250 mL. The cell media was passed over a nickel affinity column (5 mL, Fastflow resin), equilibrated in binding buffer (20 mM Tris pH 8.0, 300 mM NaCl, 20 mM imidazole, and 20% ethylene glycol) at 4° C., washed with 10 column volumes of binding buffer, and then eluted with binding buffer supplemented with 300 mM imidazole. Purified ATX was concentrated to approximately 10 mg mL^−1, and dialyzed into the appropriate assay buffer.
Steady-state enzyme assays: Phosphodiesterase activity of ATX (75-100 nM) was measured by absorbance (λ=405 nm) on a SpectraMax 250 plate reader at 25° C. with the substrate pNP-TMP [36]. Reactions were run in assay buffer containing 10% DMSO (v/v) and 1 mg mL^−1 BSA (hexachlorophene, merbromin, and bithionol) or without BSA (NSC 48300, 2,2′-Methylenebis(4-chlorophenol), eosin Y, and RJC 03297) in a total volume of […]. The uncatalyzed reaction rate was ≦10^−7 s^−1 (data not shown).
The steady-state rates (v) of product formation were obtained by fitting the time courses of absorbance or fluorescence change to linear functions. Absorbance units were converted to p-nitrophenylate concentration using ε405 of 18.5 mM^−1 cm^−1 [39] and a measured path length of 0.494 cm. FS-3 hydrolysis product formation was quantitated in arbitrary fluorescence units.
(§1) The Michaelis constants (KM) and the catalytic turnover rate constants (kcat) were obtained by fitting the [substrate]-dependence of v to a rectangular hyperbola in the form of the Briggs-Haldane equation: […]
(§2) in which [S] is [pNP-TMP] or [FS-3]. Inhibitors were treated as reversible inhibitors and analyzed according to the general steady-state linear enzyme inhibitor scheme:
(§3) in which E is ATX, S is pNP-TMP or FS-3 substrate, P are the hydrolysis products, and K1 is the dissociation equilibrium constant for inhibitor binding. The values of α and K1 were obtained by fitting the steady-state rates of product formation (v) to the general inhibition equation: […]
(§4) in which [I] is the inhibitor concentration, kcat is the maximum catalytic turnover rate, and KS is the Michaelis constant of the substrate obtained in the absence of inhibitor.
(§5) The type of inhibition (competitive, noncompetitive, or uncompetitive) depends on the value of α.
(§6) The type of inhibition was assigned if the difference between the r^2 values of the fits to the general inhibition equation (Eq 2) and the specific inhibition (i.e. competitive, noncompetitive or uncompetitive) equations was less than 0.01.

[2] = molecular target: T2, ATX (recombinant full-length human ATX), lysoPLD activity (Homo sapiens, UniProt Q13822); assay: Steady-state ATX lysoPLD activity with fluorescent LPC analogue FS-3; format: biochemical; conditions: for type of inhibition of ATX lysoPLD activity: substrate FS-3; for Ki: substrate FS-3, 37° C.
T2 construct: consistent with a mature, glycosylated form of the enzyme; TEV cleavage site (C); 9-His (C); 6-His (C); made in house; host or cells: High Five insect cells (baculovirus, p-DEST-8)
Method: Protein expression and purification: The full length human NPP2 gene (NCBI accession #BC034961) followed by a C-terminal TEV cleavage site and a 9-His and 6-His purification tag was cloned and transferred into a p-DEST-8 baculovirus shuttle vector (Invitrogen), and bacmid DNA was generated by standard methods. […] Three days post infection, the supernatant was adjusted to a final concentration of 50 mM Tris pH 8.0, 5 mM CaCl2, and 1 mM NiSO4 and stirred for 10 min. at room temperature. […] Purified ATX was concentrated to approximately 10 mg mL^−1, and dialyzed into the appropriate assay buffer.
Fluorescence was measured (λex=485 nm, λem=520 nm) on a SpectraMax Gemini XPS at 37° C. under buffer conditions similar to the PDE assays but lacking BSA. […] The spontaneous reaction rates were subtracted from the enzyme catalyzed rates.
The steady-state rates (v) of product formation were obtained by fitting the time courses of absorbance or fluorescence change to linear functions. […] FS-3 hydrolysis product formation was quantitated in arbitrary fluorescence units.
as §1, §2, §3, §4, §5, §6

[3] = test system: A2058 melanoma cells; assay: Matrigel cell invasion assay, melanoma cells; format: cell-based, human; conditions: A2058, 50 nM ATX
Method: All cell media was supplemented with 10% (v/v) fetal calf serum (FCS) (Gibco) and 1% (v/v) L-glutamine (Gibco) and grown at 37° C. in a humidified atmosphere containing 5% CO2.
(§7) Cell invasion assays: Matrigel matrix (1 mg/ml, Becton Dickenson) was added to […] gelatin-coated membranes placed in cell culture inserts (BD Falcon) and allowed to set for 24 hours at room temperature. The inserts were placed into companion 24 well plates (BD Falcon), and chemo-attractants (ATX ±inhibitors) and/or controls were added to the bottom of the wells. Cells (1×10^6) were added to the inserts and incubated for 3 hours at 37° C. Following incubation, the inserts were removed, fixed in 100% methanol, stained with DiffQuick solution, and mounted on glass slides. Non-invading cells were removed by scraping away the matrigel, and migrating cells were quantitated by counting cell number per high-powered field.

[4] = test system: Human breast adenocarcinoma cells, MDA-MB-231; assay: Matrigel cell invasion assay, breast cancer cells; format: cell-based; conditions: 50 nM ATX
Method: (§8) Cell culture: Human melanoma cells, A2058 (ATCC), were grown in Dulbecco's Modified Eagle's Medium (DMEM) (Gibco), MeI 28 (ATCC), YUSAC2 (Yale University) and MeI-888 (Yale University) were grown in OptiMEM media (Gibco), and HTB 63 (ATCC) were grown in McKoy's 5a medium (ATCC). Human breast adenocarcinoma cells, MDA-MB-231(ATCC) and ovarian carcinoma cells R182 (Gil Mor, Yale University) were grown in RPMI-1640 (Gibco). All cell media was supplemented with 10% (v/v) fetal calf serum (FCS) (Gibco) and 1% (v/v) L-glutamine (Gibco) and grown at 37° C. in a humidified atmosphere containing 5% CO2.
as §7

[5] = test system: ovarian carcinoma cells R182; assay: Matrigel cell invasion assay, primary ovarian cancer cells; format: cell-based, human; conditions: 50 nM ATX
Method: as §8, §7

Structure (SMILES) | type of inhibition of ATX PDE activity [1] | α value from general steady-state inhibition equation (Eq. 2) [1] | Ki ([1]; read-out: KI (dissociation equilibrium constant for inhibitor binding), ATX PDE activity) [µM] | type of inhibition of ATX lysoPLD activity [2] | Ki [2] [µM] | inhibition of ATX-induced stimulation of melanoma cell invasion [3] | reduction of ATX-stimulated breast cancer cell invasion [4] | reduction of ATX-stimulated ovarian cancer cell invasion [5] | Ki ([1]; competitive inhibition equation (Eq. 3), read-out: KI, ATX PDE activity) [µM] | inhibition of ATX-induced stimulation of melanoma cell invasion ([3]; listed as NSC48300)
Oc1c(Cl)cc(Cl)cc1Sc1cc(Cl)cc(Cl)c1O [Bithionol] | mixed, noncompetitive inhibition mechanism | 3.0 (±2.3) | 60 | competitively inhibits | 66 | inhibited in a dose-dependent manner; also recorded: could be reduced | could be reduced | could be reduced |  | 
O=[As](O)(O)c1ccc(Cc2ccc([As](=O)(O)O)cc2)cc1 [NSC 48300] | competitive inhibition |  |  | competitively inhibits | 0.24 | inhibited in a dose-dependent manner | could be reduced | could be reduced | 0.0475 | could be reduced
